Measurements: patent US11541029B2, “High penetration compositions and their applications” (Techfields Pharma Co., Ltd., priority 2008, dated 2023)
Blank lines part the entries; values can stand above or below the compound they belong to.

Columns and labels:
[1] = system: rats given sterilized E. coli suspension as a pyrogen; experiment: Antipyretic activity of ibuprofen and its HPC (Study A); type: in vivo
[2] = Amount of ibuprofen in rat plasma and brain, 0.3 mmol/kg
Method: The plasma or brain tissue (the whole brain was washed with pH 7.4 buffer for 3 times) was homogenized immediately in 3-5 ml of methanol, using a tissue tearor at 30,000 rpm (about 2 min.).

[3] = Distribution in organs of rabbits after transdermal HPC of ibuprofen; type: in vivo; conditions: for distribution in brain / distribution in cartilage pads / distribution in heart / distribution in prostate gland / distribution in testis: 2 hr after 0.3 mol/kg HPC of ibuprofen (10% aqueous) on shaved back; for distribution in Myelin: 2 hr after HPC of ibuprofen (10% aqueous) on shaved back
Excerpt: (§1) A HPC changed quickly to its parent drug in vivo, so the concentration was the concentration of its parent drug or related compound.

[4] = Amount of ibuprofen in Beagle dogs synovial fluid, 0.3 mmol/kg; type: in vivo
[5] = Distribution in organs of rats after transdermal HPC of ibuprofen; conditions: 2 hr after 0.3 mmol/kg HPC of ibuprofen (10% aqueous) on shaved back
Excerpt: as §1

[6] = Amounts of ibuprofen in Beagle dogs cartilage tissue; type: in vivo; conditions: 18 hours after administration
[7] = Fluorescence microscopy of HPC crossing rat skin, brain and other organs; type: in vivo; conditions: 15 minutes after 30 mg in 0.5 ml ethanol on back of rats
Method: For fluorescence microscopy studies, 30 mg of 5-(dimethylamino)naphthalene-1-sulfonic acid or its HPC, N-2-diethylaminoethyl 5-dimethylamino-1-naphthalenesulfonamide.HCl salt was dissolved in 0.5 ml of 75% ethanol and applied to the shaved back of rats (3×3 cm). 15 minutes or 3 hours later, the rat was killed and organs were taken out and frozen. The frozen tissues (brain, liver, and muscle) were sliced and stained with Haematoxylin and eosin (H&E) staining. Results were shown picture 1-9 in FIG. 9.

[8] = system: spontaneously hypertensive rats (SLAC/SHR); experiment: Anti-hypertensive activity in spontaneously hypertensive rats; type: in vivo; conditions: 50 mg/kg (10% in water) on back skin once per day
Method: 20 spontaneously hypertensive rats (SLAC/SHR, 19 weeks old, 300-350 g) were divided into 2 groups randomly. In group A, pure water (0.5 ml) was applied to the rats' back skin (˜5 cm^2, fur was cut off) once per day for 6 weeks. In groups B, 50 mg/kg of diethylaminoethyl acetylsalicylate citric acid salt (10% in water) was applied to the rats' back skin (˜5 cm^2, fur was cut off) once per day.

[9] = system: Smyth chickens (animal models of vitiligo); experiment: Anti-vitiligo activity in Smyth chickens; type: in vivo; conditions: 50 mg/kg (5% in pure water) on discoloured lesions once per day for 10 weeks
Method: 20 Smyth chickens (animal models of vitiligo) were allocated to 2 groups. Group A (n=10) chickens received 1 ml of pure water on discoloured lesions once per day for 10 weeks. Group B (n=10) Smyth chicken received 50 mg/kg of diethylaminoethyl acetylsalicylate citric acid (5% in pure water) on discoloured lesions once per day for 10 weeks. In the untreated control group A, the lesions were worse and feather loss continued. In the diethylaminoethyl acetylsalicylate citric acid treated group B, the discoloured lesions disappeared and feathers regrew with 3-6 weeks.

[10] = system: mice (aging); experiment: Lifespan of mice; type: in vivo
Method: 60 mice (10 weeks old, 30.3±3.5 g) were divided into groups A and B. In group A (n=30), 0.05 ml of distilled water (˜2 cm^2) was applied to the back of mice once per day. In group B (n=30), […] of diethylaminoethyl acetylsalicylate citric acid (the HPC of aspirin) in 0.05 ml of water (10%) was applied to the back of mice (˜2 cm^2) once per day.

[11] = Solubility in water; type: physicochemical
Method: 30 g (0.1 mol) of sodium 9-cis-retinoate was dissolved in 100 ml of acetonitrile. 26.1 g (0.1 mol) of 2-Bromo-N,N-diethylethylamine.HBr was added into the reaction mixture. The mixture was stirred for overnight at RT. The solvents were evaporated off. 200 ml of ethanol was added into the residue. The solid was removed by filtration. The solution was evaporated to dryness. 100 ml of ethyl acetate was added into the reaction mixture. Hexane (100 ml) was added. The solid product was collected by filtration. After drying, it yielded 36 g of the desired product (75%).

[12] = Distribution in milk of sheep after transdermal HPC of ibuprofen; type: in vivo; conditions: female, topical, 2 hr after 0.3 mmol/kg diethylaminoethyl 2-(ρ-isobutylphenyl)propionate.citric acid salt on back, read-out: amount found in the milk
Excerpt: as §1

[13] = 20 mg/kg, transdermally, t = 0 min.
[14] = 20 mg/kg, transdermally, t = 90 min.
[15] = 20 mg/kg, transdermally, t = 180 min.
[16] = 20 mg/kg, transdermally, t = 270 min.
[17] = 50 mg/kg, transdermally, t = 0 min.
[18] = 50 mg/kg, transdermally, t = 90 min.
[19] = 50 mg/kg, transdermally, t = 180 min.
[20] = 50 mg/kg, transdermally, t = 270 min.
[21] = 100 mg/kg, orally, t = 270 min.
[22] = 100 mg/kg, transdermally, t = 0 min.
[23] = 100 mg/kg, transdermally, t = 90 min.
[24] = 100 mg/kg, transdermally, t = 180 min.
[25] = 100 mg/kg, transdermally, t = 270 min.

- ibuprofen in Plasma (18 hr) ([2]; intramuscularly): 0.5 ± 0.2 nmol/mL
- ibuprofen in Plasma (18 hr) ([2]; transdermally): 2.9 ± 2 nmol/mL
- distribution in brain [3]: 0.4 ± 0.2 nmol/g
- distribution in cartilage pads [3]: 0.4 ± 0.2 nmol/g
- distribution in heart [3]: 0.3 ± 0.1 nmol/g
- distribution in prostate gland [3]: 0.5 ± 0.3 nmol/g
- distribution in testis [3]: 0.5 ± 0.3 nmol/g
- distribution in Myelin [3]: 0.60 ± 0.2 nmol/g
- ibuprofen in synovial fluid ([4]; intramuscularly, 1 hour): 28.1 ± 8.1 nmol/g
- ibuprofen in synovial fluid ([4]; intramuscularly, 8 hours): 22.1 ± 4.2 nmol/g
- ibuprofen in synovial fluid ([4]; intramuscularly, 18 hours): 4.2 ± 1.1 nmol/g
- ibuprofen in synovial fluid ([4]; transdermally, 1 hour): 11.6 ± 4.2 nmol/g
- ibuprofen in synovial fluid ([4]; transdermally, 8 hours): 28.2 ± 4.7 nmol/g
- ibuprofen in synovial fluid ([4]; transdermally, 18 hours): 11.2 ± 3.2 nmol/g
- distribution in brain [5]: 0.1 ± 0.05 nmol/g
- distribution in heart [5]: 0.5 ± 0.2 nmol/g
- distribution in kidney [5]: 0.4 ± 0.2 nmol/g
- distribution in liver [5]: 0.2 ± 0.2 nmol/g
- distribution in pancreas [5]: 0.5 ± 0.3 nmol/g
- distribution in stomach [5]: 0.3 ± 0.1 nmol/g
- Amount of ibuprofen in cartilage tissue ([6]; intramuscularly): 17.2 ± 6.1 nmol/g
- Amount of ibuprofen in cartilage tissue ([6]; transdermally): 22.5 ± 4.5 nmol/g
SMILES: CCN(CC)CCOC(=O)C(C)c1ccc(CC(C)C)cc1.Cl (stereo not drawn) [diethylaminoethyl 2-(ρ-isobutylphenyl)propionate.HCl]
- body temperature ([1]; 20 mg/kg, orally, t = 0 min.): 37.6 ± 0.3
- body temperature ([1]; 20 mg/kg, orally, t = 90 min.): 37.1 ± 0.3
- body temperature ([1]; 20 mg/kg, orally, t = 180 min.): 36.9 ± 0.3
- body temperature ([1]; 20 mg/kg, orally, t = 270 min.): 36.8 ± 0.2
- body temperature [1, 13]: 37.6 ± 0.2
- body temperature [1, 14]: 36.7 ± 0.4
- body temperature [1, 15]: 36.6 ± 0.5
- body temperature [1, 16]: 36.5 ± 0.3
- body temperature ([1]; 50 mg/kg, orally, t = 0 min.): 37.6 ± 0.3
- body temperature ([1]; 50 mg/kg, orally, t = 90 min.): 36.6 ± 0.3
- body temperature ([1]; 50 mg/kg, orally, t = 180 min.): 36.5 ± 0.3
- body temperature ([1]; 50 mg/kg, orally, t = 270 min.): 36.4 ± 0.2
- body temperature [1, 17]: 37.5 ± 0.4
- body temperature [1, 18]: 36.5 ± 0.3
- body temperature [1, 19]: 36.4 ± 0.3
- body temperature [1, 20]: 36.5 ± 0.2
- body temperature ([1]; 100 mg/kg, orally, t = 0 min.): 37.5 ± 0.4
- body temperature ([1]; 100 mg/kg, orally, t = 90 min.): 36.5 ± 0.3
- body temperature ([1]; 100 mg/kg, orally, t = 180 min.): 36.4 ± 0.3
- body temperature [1, 21]: 36.4 ± 0.2
- body temperature [1, 22]: 37.5 ± 0.3
- body temperature [1, 23]: 36.5 ± 0.2
- body temperature [1, 24]: 36.4 ± 0.3
- body temperature [1, 25]: 36.5 ± 0.2

SMILES: CCN(CC)CCNS(=O)(=O)c1cccc2c(N(C)C)cccc12.Cl [N-2-diethylaminoethyl 5-dimethylamino-1-naphthalenesulfonamide.HCl salt]
- fluorescence chemical entering brain, muscle, and liver [7]: large amount of the fluorescence chemical had entered the brain, muscle, and liver

SMILES: CCN(CC)CCOC(=O)c1ccccc1OC(C)=O.O=C(O)CC(O)(CC(=O)O)C(=O)O [diethylaminoethyl acetylsalicylate citric acid salt]
- Blood pressure (week 0), Systolic [8]: 184.6 ± 15.1 mmHg
- Blood pressure (week 0), diastolic [8]: 118.2 ± 13.1 mmHg
- Blood pressure (week 2 to week 6), Systolic [8]: 115.4 ± 14.6 mmHg
- Blood pressure (week 2 to week 6), diastolic [8]: 83.5 ± 12.1 mmHg
- time until discoloured lesions disappeared and feathers regrew [9]: 3-6 weeks
- Lifespan ([10]; 0.5 mg in 0.05 ml of water on back once per day, n=30): 38.2 ± 4.6 month
- increase of the lifespan of mice ([10]; mouse, in vivo): 27%

SMILES: Br.CCN(CC)CCOC(=O)/C=C(C)/C=C/C=C(C)\C=C\C1=C(C)CCCC1(C)C [N,N-diethylaminoethyl 9-cis-retinoate.HBr]
- solubility in water [11]: 30 mg/mL

- concentration at 1 h ([2]; male, rat, in vivo): 1430 ± 68 µM
- concentration at 8 h ([2]; male, rat, in vivo): 313 ± 39 µM
- concentration at 2 h [12]: 30 ± 8 µM
- distribution in brain [3]: 5 ± 1 nmol/g
- distribution in cartilage pads [3]: 8 ± 2 nmol/g
- distribution in heart [3]: 10 ± 5 nmol/g
- distribution in prostate gland [3]: 18 ± 7 nmol/g
- distribution in testis [3]: 11 ± 4 nmol/g
- distribution in Myelin [3]: 25 ± 8 nmol/g
- ibuprofen in synovial fluid ([4]; intramuscularly, 1 hour): 3.2 ± 0.3 nmol/g
- ibuprofen in synovial fluid ([4]; intramuscularly, 8 hours): 0.3 ± 0.1 nmol/g
SMILES: CC(C)Cc1ccc(C(C)C(=O)O)cc1 (stereo not drawn) [ibuprofen, 2-(ρ-isobutylphenyl)propionic acid, reference compound]
- body temperature ([1]; 20 mg/kg, orally, t = 0 min.): 37.5 ± 0.2
- body temperature ([1]; 20 mg/kg, orally, t = 90 min.): 37.6 ± 0.3
- body temperature ([1]; 20 mg/kg, orally, t = 180 min.): 37.5 ± 0.3
- body temperature ([1]; 20 mg/kg, orally, t = 270 min.): 37.4 ± 0.3
- body temperature [1, 13]: 37.5 ± 0.3
- body temperature [1, 14]: 37.5 ± 0.5
- body temperature [1, 15]: 37.8 ± 0.4
- body temperature [1, 16]: 37.9 ± 0.3
- body temperature ([1]; 50 mg/kg, orally, t = 0 min.): 37.5 ± 0.3
- body temperature ([1]; 50 mg/kg, orally, t = 90 min.): 37.6 ± 0.3
- body temperature ([1]; 50 mg/kg, orally, t = 180 min.): 37.2 ± 0.3
- body temperature ([1]; 50 mg/kg, orally, t = 270 min.): 37.1 ± 0.3
- body temperature [1, 17]: 37.6 ± 0.3
- body temperature [1, 18]: 37.8 ± 0.3
- body temperature [1, 19]: 37.9 ± 0.3
- body temperature [1, 20]: 38.1 ± 0.3
- body temperature ([1]; 100 mg/kg, orally, t = 0 min.): 37.5 ± 0.3
- body temperature ([1]; 100 mg/kg, orally, t = 90 min.): 37.4 ± 0.4
- body temperature [1, 21]: 36.7 ± 0.3
- body temperature [1, 22]: 37.6 ± 0.4
- body temperature [1, 23]: 37.9 ± 0.4
- body temperature [1, 24]: 37.8 ± 0.3
- body temperature [1, 25]: 37.8 ± 0.2
- antipyretic activity ([1]; transdermal administration): did not show any antipyretic activity
